IC50 data for 27 molecules are collected here from patent US11739100B2, “2,3-dihydro-1h-imidazo{1,2-a}pyrimidin-5-one and this 1,2,3,4-tetrahydropyrimido{1,2-a}pyrimidin-6-one derivatives comprising a substituted morpholine, preparation thereof and pharmaceutical use thereof” (SANOFI, priority 2012, dated 2023).

The structures appear in SMILES notation.

In the assay the target is T1, recombinant Vps34 (Homo sapiens, UniProt Q8NEB9).
T1 construct: purchased Invitrogen PV5126
T1 sequence (Q8NEB9 whole entry): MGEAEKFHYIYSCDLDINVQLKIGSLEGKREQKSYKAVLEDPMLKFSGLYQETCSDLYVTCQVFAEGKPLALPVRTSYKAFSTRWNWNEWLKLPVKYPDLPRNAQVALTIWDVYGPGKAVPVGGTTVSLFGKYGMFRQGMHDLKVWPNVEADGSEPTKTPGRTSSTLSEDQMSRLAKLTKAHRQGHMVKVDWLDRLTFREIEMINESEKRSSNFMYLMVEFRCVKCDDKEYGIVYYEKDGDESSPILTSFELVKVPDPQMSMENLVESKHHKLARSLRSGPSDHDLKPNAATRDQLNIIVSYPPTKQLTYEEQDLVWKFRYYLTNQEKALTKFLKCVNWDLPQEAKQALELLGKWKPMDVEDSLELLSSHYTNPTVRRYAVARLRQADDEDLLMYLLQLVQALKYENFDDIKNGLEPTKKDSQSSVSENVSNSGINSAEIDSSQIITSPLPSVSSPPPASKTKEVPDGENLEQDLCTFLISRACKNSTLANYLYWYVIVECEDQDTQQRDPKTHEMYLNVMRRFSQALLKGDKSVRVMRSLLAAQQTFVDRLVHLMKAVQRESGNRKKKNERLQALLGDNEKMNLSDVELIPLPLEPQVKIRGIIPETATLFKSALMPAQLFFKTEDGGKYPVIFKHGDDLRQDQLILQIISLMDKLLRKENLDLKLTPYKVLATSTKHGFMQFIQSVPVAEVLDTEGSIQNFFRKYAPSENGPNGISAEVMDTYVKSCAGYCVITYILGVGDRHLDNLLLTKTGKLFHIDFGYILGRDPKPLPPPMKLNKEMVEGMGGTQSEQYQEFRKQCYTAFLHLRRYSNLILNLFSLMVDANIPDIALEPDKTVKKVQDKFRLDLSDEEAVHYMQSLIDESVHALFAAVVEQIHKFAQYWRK
The assay can be described thus: Phosphorylation of phosphatidylinositol (PI) by Vps34 in vitro, ADP detected by TR-FRET (HTRF Transcreener ADP). The assay is classed as biochemical. The conditions noted are these: 10 μM ATP, 55 μg/ml PI, approximately 3 nM Vps34, 1 hour at ambient temperature; absolute IC50, mean of two independent experiments; read-out: IC50 activity range.
For the molecule `C[C@@H]1COCCN1c1cc(=O)n2c(n1)N(CC(=O)C1CCOCC1)[C@H](C(F)(F)F)CC2` [Example 245, (S)-2-((R)-3-Methyl-morpholin-4-yl)-9-[2-oxo-2-(tetrahydro-pyran-4-yl)ethyl]-8-trifluoromethyl-6,7,8,9-tetrahydro-pyrimido[1,2-a]-pyrimidin-4-one], the IC50 was less than 10 nM.

As for `CC(C)c1nc(CN2c3nc(N4CCOC[C@H]4C)c(F)c(=O)n3CC[C@H]2C(F)(F)F)no1` [Example 246, (S)-3-Fluoro-9-(5-isopropyl-[1,2,4]oxadiazol-3-yl-methyl)-2-((R)-3-methylmorpholin-4-yl)-8-trifluoromethyl-6,7,8,9-tetrahydro-pyrimido[1,2-a]-pyrimidin-4-one], the IC50 is less than 10 nM.

For `C[C@@H]1COCCN1c1nc2n(c(=O)c1F)CC[C@@H](C(F)(F)F)N2Cc1noc(C2CC2)n1` [Example 247, (S)-9-(5-Cyclopropyl-[1,2,4]oxadiazol-3-yl-methyl)-3-fluoro-2-((R)-3-methyl-morpholin-4-yl)-8-trifluoromethyl-6,7,8,9-tetrahydro-pyrimido[1,2-a]-pyrimidin-4-one], the IC50 is less than 10 nM.

In the case of `CC(C)c1noc(CN2c3nc(N4CCOC[C@H]4C)c(F)c(=O)n3CC[C@H]2C(F)(F)F)n1` [Example 248, (S)-3-Fluoro-9-(3-isopropyl-[1,2,4]oxadiazol-5-yl-methyl)-2-((R)-3-methylmorpholin-4-yl)-8-trifluoromethyl-6,7,8,9-tetrahydro-pyrimido[1,2-a]-pyrimidin-4-one], the IC50 was less than 10 nM.

For the molecule `C[C@@H]1COCCN1c1nc2n(c(=O)c1F)CC[C@@H](C(F)(F)F)N2Cc1nc(C2CC2)no1` [Example 249, (S)-9-(3-Cyclopropyl-[1,2,4]oxadiazol-5-yl-methyl)-3-fluoro-2-((R)-3-methyl-morpholin-4-yl)-8-trifluoromethyl-6,7,8,9-tetrahydro-pyrimido[1,2-a]-pyrimidin-4-one], the IC50 is less than 10 nM.

As to `C[C@@H]1COCCN1c1nc2n(c(=O)c1F)CC[C@@H](C(F)(F)F)N2Cc1nc(C(C)(C)C)no1` [Example 250, (S)-9-(3-tert-Butyl-[1,2,4]oxadiazol-5-yl-methyl)-3-fluoro-2-((R)-3-methyl-morpholin-4-yl)-8-trifluoromethyl-6,7,8,9-tetrahydro-pyrimido[1,2-a]-pyrimidin-4-one], the IC50 was less than 10 nM.

Take `C[C@@H]1COCCN1c1nc2n(c(=O)c1F)CC[C@@H](C(F)(F)F)N2Cc1nc(C(F)(F)F)no1` [Example 251, (S)-3-Fluoro-2-((R)-3-methylmorpholin-4-yl)-8-trifluoromethyl-9-(3-trifluoromethyl-[1,2,4]oxadiazol-5-yl-methyl)-6,7,8,9-tetrahydro-pyrimido[1,2-a]-pyrimidin-4-one]: the IC50 was less than 10 nM.

Take `CC(C)C(=O)CN1c2nc(N3CCOC[C@H]3C)cc(=O)n2CC[C@@]1(C)C(F)(F)F` [Example 252, (S)-8-Methyl-2-((R)-3-methylmorpholin-4-yl)-9-(3-methyl-2-oxo-butyl)-8-trifluoromethyl-6,7,8,9-tetrahydro-pyrimido[1,2-a]-pyrimidin-4-one]: the IC50 was less than 10 nM.

For `C[C@@H]1COCCN1c1cc(=O)n2c(n1)N(CC(=O)C1(C)CCCC1)[C@H](C(F)(F)F)CC2` [Example 253, (S)-9-[2-(1-Methyl-cyclopentyl)-2-oxo-ethyl]-2-((R)-3-methyl-morpholin-4-yl)-8-trifluoromethyl-6,7,8,9-tetrahydro-pyrimido[1,2-a]-pyrimidin-4-one], the IC50 is less than 10 nM.

As to `CC(C)OC(=O)CN1c2nc(N3CCOC[C@H]3C)cc(=O)n2CC[C@H]1C(F)(F)F` [Example 254, [(S)-8-((R)-3-Methyl-morpholin-4-yl)-6-oxo-2-trifluoromethyl-3,4-dihydro-2H,6H-pyrimido[1,2-a]-pyrimidin-1-yl]acetic acid isopropyl ester], the IC50 was less than 10 nM.

Turning to `C[C@@H]1COCCN1c1cc(=O)n2c(n1)N(Cc1ccnc(F)c1)[C@H](C(F)(F)F)CC2` [Example 257, (S)-9-(2-Fluoropyridin-4-ylmethyl)-2-((R)-3-methylmorpholin-4-yl)-8-trifluoromethyl-6,7,8,9-tetrahydro-pyrimido[1,2-a]-pyrimidin-4-one], the IC50 was less than 10 nM.

Take `C[C@@H]1COCCN1c1cc(=O)n2c(n1)N(CC(=O)C1CCCCC1)[C@H](C(F)(F)F)CC2` [Example 258, (S)-9-(2-Cyclohexyl-2-oxoethyl)-2-((R)-3-methylmorpholin-4-yl)-8-trifluoromethyl-6,7,8,9-tetrahydro-pyrimido[1,2-a]-pyrimidin-4-one]: the IC50 was less than 10 nM.

Regarding `C[C@@H]1COCCN1c1cc(=O)n2c(n1)N(Cc1ccnnc1)[C@H](C(F)(F)F)CC2` [Example 259, (S)-2-((R)-3-methyl-morpholin-4-yl)-9-pyridazin-4-ylmethyl-8-trifluoromethyl-6,7,8,9-tetrahydro-pyrimido[1,2-a]-pyrimidin-4-one], the IC50 was less than 10 nM.

As to `C[C@@H]1COCCN1c1cc(=O)n2c(n1)N(CC(=O)OC(C)(C)C)[C@H](C(F)(F)F)CC2` [Example 260, [(S)-8-((R)-3-Methyl-morpholin-4-yl)-6-oxo-2-trifluoromethyl-3,4-dihydro-2H,6H-pyrimido[1,2-a]-pyrimidin-1-yl]acetic acid tert-butyl ester], the IC50 is less than 10 nM.

Turning to `C[C@@H]1COCCN1c1cc(=O)n2c(n1)N(CC(=O)C1CCCN1C(=O)OC(C)(C)C)[C@H](C(F)(F)F)CC2` (stereo partly drawn) [Example 261, 2-{2-[(S)-8-((R)-3-Methylmorpholin-4-yl)-6-oxo-2-trifluoromethyl-3,4-dihydro-2H,6H-pyrimido[1,2-a]-pyrimidin-1-yl]acetyl}-pyrrolidine-1-carboxylic acid tert-butyl ester], the IC50 was 10 to 100 nM.

Take `COC(=O)CN1c2nc(N3CCOC[C@H]3C)cc(=O)n2CC[C@H]1C(F)(F)F` [Example 262, [(S)-8-((R)-3-Methyl-morpholin-4-yl)-6-oxo-2-trifluoromethyl-3,4-dihydro-2H,6H-pyrimido[1,2-a]-pyrimidin-1-yl]acetic acid methyl ester]: the IC50 was less than 10 nM.

On to `C[C@@H]1COCCN1c1cc(=O)n2c(n1)N(CC(N)=O)[C@H](C(F)(F)F)CC2` [Example 263, 2-[(S)-8-((R)-3-Methyl-morpholin-4-yl)-6-oxo-2-trifluoromethyl-3,4-dihydro-2H,6H-pyrimido[1,2-a]-pyrimidin-1-yl]-acetamide], for which the IC50 was more than 100 nM.

Take `C[C@@H]1COCCN1c1cc(=O)n2c(n1)N(Cc1nnc[nH]1)[C@H](C(F)(F)F)CC2` [Example 264, (S)-2-((R)-3-Methyl-morpholin-4-yl)-9-(4H-[1,2,4]triazol-3-yl-methyl)-8-trifluoromethyl-6,7,8,9-tetrahydro-pyrimido[1,2-a]-pyrimidin-4-one]: the IC50 is less than 10 nM.

Regarding `C[C@@H]1COCCN1c1cc(=O)n2c(n1)N(CC(=O)C1CCNCC1)[C@H](C(F)(F)F)CC2` [Example 265, (S)-2-((R)-3-Methyl-morpholin-4-yl)-9-(2-oxo-2-piperidin-4-yl-ethyl)-8-trifluoromethyl-6,7,8,9-tetrahydro-pyrimido[1,2-a]-pyrimidin-4-one], the IC50 fell in the range of 10 to 100 nM.

With `CC(C)=CCN1c2nc(N3CCOC[C@H]3C)cc(=O)n2CC[C@H]1C(F)(F)F` [Example 266, (S)-9-(3-Methyl-but-2-enyl)-2-((R)-3-methyl-morpholin-4-yl)-8-trifluoromethyl-6,7,8,9-tetrahydro-pyrimido[1,2-a]-pyrimidin-4-one], the IC50 was less than 10 nM.

For `C[C@@H]1COCCN1c1cc(=O)n2c(n1)N(CCC(C)(C)F)[C@H](C(F)(F)F)CC2` [Example 267, (S)-9-(3-Fluoro-3-methylbutyl)-2-((R)-3-methylmorpholin-4-yl)-8-trifluoromethyl-6,7,8,9-tetrahydro-pyrimido[1,2-a]-pyrimidin-4-one], the IC50 was less than 10 nM.

As to `Cc1nocc1C(=O)CN1c2nc(N3CCOC[C@H]3C)cc(=O)n2CC[C@H]1C(F)(F)F` [Example 268, (S)-9-[2-(3-Methyl-isoxazol-4-yl)-2-oxo-ethyl]-2-((R)-3-methyl-morpholin-4-yl)-8-trifluoromethyl-6,7,8,9-tetrahydro-pyrimido[1,2-a]-pyrimidin-4-one], the IC50 is more than 100 nM.

Consider `C[C@@H]1COCCN1c1cc(=O)n2c(n1)N(CC(=O)C1CCOC1)[C@H](C(F)(F)F)CC2` (stereo partly drawn) [Example 269, (S)-2-((R)-3-Methyl-morpholin-4-yl)-9-[2-oxo-2-(tetrahydro-furan-3-yl)ethyl]-8-trifluoromethyl-6,7,8,9-tetrahydro-pyrimido[1,2-a]-pyrimidin-4-one], for which the IC50 is 10 to 100 nM.

As for `Cc1nc(CN2c3nc(N4CC5CCC(C4)O5)cc(=O)n3CC[C@H]2C(F)(F)F)no1` [Example 270, (S)-9-(5-Methyl-[1,2,4]oxadiazol-3-yl-methyl)-2-(8-oxa-3-azabicyclo[3.2.1]oct-3-yl)-8-trifluoromethyl-6,7,8,9-tetrahydro-pyrimido[1,2-a]-pyrimidin-4-one], the IC50 fell in the range of 10 to 100 nM.

As for `O=C(CN1c2nc(N3CC4CCC(C3)O4)cc(=O)n2CC[C@H]1C(F)(F)F)C1CC1` [Example 271, (S)-9-(2-Cyclopropyl-2-oxoethyl)-2-(8-oxa-3-azabicyclo[3.2.1]oct-3-yl)-8-trifluoromethyl-6,7,8,9-tetrahydro-pyrimido[1,2-a]-pyrimidin-4-one], the IC50 lay in the range of 10 to 100 nM.

In the case of `CC(C)C(=O)CN1c2nc(N3CC4CCC(C3)O4)cc(=O)n2CC[C@H]1C(F)(F)F` [Example 272, (S)-9-(3-Methyl-2-oxo-butyl)-2-(8-oxa-3-aza-bicyclo[3.2.1]oct-3-yl)-8-trifluoromethyl-6,7,8,9-tetrahydro-pyrimido[1,2-a]-pyrimidin-4-one], the IC50 was more than 100 nM.

As for `O=C(CN1c2nc(N3CC4CCC(C3)O4)c(F)c(=O)n2CC[C@H]1C(F)(F)F)C1CC1` [Example 273, (S)-9-(2-Cyclopropyl-2-oxoethyl)-3-fluoro-2-(8-oxa-3-aza-bicyclo[3.2.1]oct-3-yl)-8-trifluoromethyl-6,7,8,9-tetrahydro-pyrimido[1,2-a]-pyrimidin-4-one], the IC50 lay in the range of 10 to 100 nM.
